Measurements from article PMC9520775, “Everolimus pharmacokinetics and exposure-response relationship in Japanese patients with advanced breast cancer” (Frontiers in Pharmacology, 2022).

Tested on: patients with advanced or metastatic breast cancer
Test: Adverse events (CTCAE Ver. 4.0), dose-limiting toxicities and dose reductions under everolimus
Format: in vivo, human
Description: This was a prospective, observational PK study. Patients with advanced or metastatic breast cancer who received everolimus between November 2015 and November 2018 at Kobe City Medical Center General Hospital were enrolled in this study. The main inclusion criteria included the following: age ≥20 years; Eastern Cooperative Oncology Group (ECOG) performance status (PS): 0 or 1; and adequate bone marrow, liver, and renal function. The main exclusion criteria were interstitial pneumonia or pulmonary fibrosis, HBsAg positive, and psychiatric or psychological symptoms that made it difficult to participate in the study. Every participant provided written informed consent. This study was conducted in accordance with the Declaration of Helsinki and approved by the Institutional Review Board, under Approval Number zn151103.
Based on the physician’s decision, the patients were prescribed a starting dose of either 5 or 10 mg everolimus once daily. The everolimus dose was reduced when a patient experienced adverse events higher than grade 2. The first reduced dose was 5 mg once daily, followed by the second reduced dose of 2.5 mg once daily or 5 mg every alternate day. In addition, everolimus doses could be increased if adverse events improved to grade 1 or less, or deemed inefficacious. The adverse events were evaluated weekly for the first month and then every 1–4 weeks, according to the Common Terminology Criteria for Adverse Events Ver. 4.0.
Statistical differences in everolimus trough concentrations, doses and body weights between patient cohorts were assessed using the Mann–Whitney test. Progression-free survival (PFS) was assessed using the Kaplan-Meier method and the log-rank test. All statistical analyses were performed using GraphPad Prism version 7.03 (San Diego, CA). p < 0.05 was considered statistically significant.

[1] = All patients (n = 18), Grade All
[2] = Initial dose: 5 mg/day (n = 6), Grade 1
[3] = Initial dose: 5 mg/day (n = 6), Grade 2

Structure (SMILES): CO[C@H]1C[C@@H]2CC[C@@H](C)[C@@](O)(O2)C(=O)C(=O)N2CCCC[C@H]2C(=O)O[C@H]([C@H](C)C[C@@H]2CC[C@@H](OCCO)[C@H](OC)C2)CC(=O)[C@H](C)/C=C(\C)[C@@H](O)[C@@H](OC)C(=O)[C@H](C)C[C@H](C)/C=C/C=C/C=C/1C [everolimus]
- Adverse event, n: Diarrhea (All patients (n = 18), Grade 1): 1
- Adverse event, n: Dysgeusia (All patients (n = 18), Grade 1): 4
- Adverse event, n: Epistaxis (All patients (n = 18), Grade 1): 6
- Adverse event, n: High cholesterol (All patients (n = 18), Grade 1): 9
- Adverse event, n: Hyperglycemia (All patients (n = 18), Grade 1): 4
- Adverse event, n: Hypertriglyceridemia (All patients (n = 18), Grade 1): 8
- Adverse event, n: Hypokalemia (All patients (n = 18), Grade 1): 6
- Adverse event, n: Interstitial lung disease (All patients (n = 18), Grade 1): 3
- Adverse event, n: Malaise (All patients (n = 18), Grade 1): 6
- Adverse event, n: Mucositis oral (All patients (n = 18), Grade 1): 7
- Adverse event, n: Neutrophil count decreased (All patients (n = 18), Grade 1): 2
- Adverse event, n: Platelet decrease (All patients (n = 18), Grade 1): 9
- Adverse event, n: Rash (All patients (n = 18), Grade 1): 11
- Adverse event, n: Diarrhea (All patients (n = 18), Grade 2): 4
- Adverse event, n: Dysgeusia (All patients (n = 18), Grade 2): 1
- Adverse event, n: Epistaxis (All patients (n = 18), Grade 2): 0
- Adverse event, n: High cholesterol (All patients (n = 18), Grade 2): 2
- Adverse event, n: Hyperglycemia (All patients (n = 18), Grade 2): 1
- Adverse event, n: Hypertriglyceridemia (All patients (n = 18), Grade 2): 4
- Adverse event, n: Hypokalemia (All patients (n = 18), Grade 2): 1
- Adverse event, n: Interstitial lung disease (All patients (n = 18), Grade 2): 2
- Adverse event, n: Malaise (All patients (n = 18), Grade 2): 1
- Adverse event, n: Mucositis oral (All patients (n = 18), Grade 2): 10
- Adverse event, n: Neutrophil count decreased (All patients (n = 18), Grade 2): 3
- Adverse event, n: Platelet decrease (All patients (n = 18), Grade 2): 0
- Adverse event, n: Rash (All patients (n = 18), Grade 2): 3
- Adverse event, n: Diarrhea (All patients (n = 18), Grade 3): 0
- Adverse event, n: Dysgeusia (All patients (n = 18), Grade 3): 0
- Adverse event, n: Epistaxis (All patients (n = 18), Grade 3): 0
- Adverse event, n: High cholesterol (All patients (n = 18), Grade 3): 0
- Adverse event, n: Hyperglycemia (All patients (n = 18), Grade 3): 0
- Adverse event, n: Hypertriglyceridemia (All patients (n = 18), Grade 3): 0
- Adverse event, n: Hypokalemia (All patients (n = 18), Grade 3): 1
- Adverse event, n: Interstitial lung disease (All patients (n = 18), Grade 3): 0
- Adverse event, n: Malaise (All patients (n = 18), Grade 3): 0
- Adverse event, n: Mucositis oral (All patients (n = 18), Grade 3): 0
- Adverse event, n: Neutrophil count decreased (All patients (n = 18), Grade 3): 1
- Adverse event, n: Platelet decrease (All patients (n = 18), Grade 3): 0
- Adverse event, n: Rash (All patients (n = 18), Grade 3): 0
- Adverse event, n: Diarrhea (All patients (n = 18), Grade 4): 0
- Adverse event, n: Dysgeusia (All patients (n = 18), Grade 4): 0
- Adverse event, n: Epistaxis (All patients (n = 18), Grade 4): 0
- Adverse event, n: High cholesterol (All patients (n = 18), Grade 4): 0
- Adverse event, n: Hyperglycemia (All patients (n = 18), Grade 4): 0
- Adverse event, n: Hypertriglyceridemia (All patients (n = 18), Grade 4): 0
- Adverse event, n: Hypokalemia (All patients (n = 18), Grade 4): 1
- Adverse event, n: Interstitial lung disease (All patients (n = 18), Grade 4): 0
- Adverse event, n: Malaise (All patients (n = 18), Grade 4): 0
- Adverse event, n: Mucositis oral (All patients (n = 18), Grade 4): 0
- Adverse event, n: Neutrophil count decreased (All patients (n = 18), Grade 4): 0
- Adverse event, n: Platelet decrease (All patients (n = 18), Grade 4): 0
- Adverse event, n: Rash (All patients (n = 18), Grade 4): 0
- Adverse event, n: Diarrhea [1]: 5
- Adverse event, n: Dysgeusia [1]: 5
- Adverse event, n: Epistaxis [1]: 6
- Adverse event, n: High cholesterol [1]: 11
- Adverse event, n: Hyperglycemia [1]: 5
- Adverse event, n: Hypertriglyceridemia [1]: 12
- Adverse event, n: Hypokalemia [1]: 9
- Adverse event, n: Interstitial lung disease [1]: 5
- Adverse event, n: Malaise [1]: 7
- Adverse event, n: Mucositis oral [1]: 17
- Adverse event, n: Neutrophil count decreased [1]: 6
- Adverse event, n: Platelet decrease [1]: 9
- Adverse event, n: Rash [1]: 14
- trough concentrations at DLTs compared with trough concentrations in the absence of DLTs (DLT (n = 13) vs no DLT (n = 18), Mann-Whitney test, p = 0.0058): significantly higher
- number of patients, DLTs (−) (Dose 5 mg, BW 36.1–40.0 kg): 1
- number of patients, DLTs (−) (Dose 5 mg, BW 40.1–45.0 kg): 1
- number of patients, DLTs (+) (Dose 5 mg, BW 45.1–50.0 kg): 1
- number of patients, DLTs (+) (Dose 5 mg, BW 50.1–55.0 kg): 1
- number of patients, DLTs (−) (Dose 5 mg, BW 50.1–55.0 kg): 3
- number of patients, DLTs (+) (Dose 5 mg, BW 55.1–60.0 kg): 3
- number of patients, DLTs (−) (Dose 5 mg, BW 55.1–60.0 kg): 2
- number of patients, DLTs (+) (Dose 10 mg, BW 36.1–40.0 kg): 1
- number of patients, DLTs (+) (Dose 10 mg, BW 40.1–45.0 kg): 1
- number of patients, DLTs (−) (Dose 10 mg, BW 40.1–45.0 kg): 1
- number of patients, DLTs (+) (Dose 10 mg, BW 45.1–50.0 kg): 2
- number of patients, DLTs (−) (Dose 10 mg, BW 45.1–50.0 kg): 1
- number of patients, DLTs (+) (Dose 10 mg, BW 50.1–55.0 kg): 2
- number of patients, DLTs (+) (Dose 10 mg, BW 55.1–60.0 kg): 2
- number of patients, DLTs (−) (Dose 10 mg, BW 60.1–65.0 kg): 1
- number of patients, DLTs (−) (Dose 10 mg, BW 66.1–70.0 kg): 1
- Adverse event, n: Diarrhea [2]: 0
- Adverse event, n: Dysgeusia [2]: 1
- Adverse event, n: Epistaxis [2]: 2
- Adverse event, n: High cholesterol [2]: 4
- Adverse event, n: Hyperglycemia [2]: 2
- Adverse event, n: Hypertriglyceridemia [2]: 2
- Adverse event, n: Hypokalemia [2]: 2
- Adverse event, n: Interstitial lung disease [2]: 0
- Adverse event, n: Malaise [2]: 1
- Adverse event, n: Mucositis oral [2]: 2
- Adverse event, n: Neutrophil count decreased [2]: 0
- Adverse event, n: Platelet decrease [2]: 2
- Adverse event, n: Rash [2]: 3
- Adverse event, n: Diarrhea [3]: 1
- Adverse event, n: Dysgeusia [3]: 1
- Adverse event, n: Epistaxis [3]: 0
- Adverse event, n: High cholesterol [3]: 0
- Adverse event, n: Hyperglycemia [3]: 0
- Adverse event, n: Hypertriglyceridemia [3]: 1
- Adverse event, n: Hypokalemia [3]: 0
- Adverse event, n: Interstitial lung disease [3]: 1
- Adverse event, n: Malaise [3]: 1
- Adverse event, n: Mucositis oral [3]: 4
- Adverse event, n: Neutrophil count decreased [3]: 0
- Adverse event, n: Platelet decrease [3]: 0
- Adverse event, n: Rash [3]: 1
